The test system of one assay is ERK1/2. In words: ERK1/2 phosphorylation immunoblot in JEG-3 cells. Particulars: for extent of ERK1/2 phosphorylation (activation): 100 nM, 10 minutes. In kind it is cell-based, human.
The next assay deals with JNK2. As to the kind of experiment: Phosphorylation of immunoprecipitated myc-JNK2 in JEG-3 cells. In kind it is cell-based, human. Particulars: for activation (phosphorylation) of myc-JNK2: 100 nM; for effect of PTX pre-incubation on JNK phosphorylation: ligand 100 nM, PTX 16 h 200 ng/ml. The procedure:
The activation of two other forms of mitogen-activated protein kinase (MAPK) was studied in JEG-3 and BPH-1 cells by overexpressing myc-tagged constructs of JNK2 or p38α. Immunoprecipitation of these constructs after GnRHR-ligand stimulation of either cell line allowed the degree of kinase activation to be assessed using antisera specific for the active, phosphorylated, form of the kinase. […] In both panel a and b, the dose of GnRH I employed was 100 nM. The respective histograms in each panel represent the mean±s.e. mean of three experimental replicate time courses.
The inset immunoblots depict the phosphorylation status of the immunoprecipitated JNK2 increasing while the level of total unphosphorylated protein (detected with α-JNK antisera) remains unchanged. The histogram below depicts the mean±s.e. mean of three experimental replicates of the above western blot. Stimulation of BPH-1 cells with the same range of ligands (Panel b) yields a similar pattern of MAPK activation, but in this case p38α. […] The inset immunoblots depict an increasing phosphorylation of p38α with no increase in total p38α protein. The histograin below depicts the mean±s.e. mean of three experimental replicates of the above western blot.
Stimulation of JNK in JEG-3 cells and p38 in BPH-1 cells and its sensitivity to pre-exposure to PTX was assessed by measuring the degree of activating phosphorylation of immunoprecipitated myc-JNK2 or myc-p38α. Panel a depicts a representative western blot of immunoprecipitated myc-JNK2 from JEG-3 cells stimulated with either GnRH I (100 nM) or Ant 135-25 (100 nM). The phosphorylation status of JNK was elevated by GnRH I and Ant135-25 with no significant alteration in total immunoprecipitated JNK levels (assessed by immunoblot with α-myc antisera). […] The histograms in panels b and c depict the mean±s.e. mean of three experimental replicates of the above western blot (panel a) experiments. Panel d depicts an identical experiment to that in panel a except that it is the phosphorylation status of immunoprecipitated myc-p38α that is being measured. […] The histograms in panels e and f depict the mean±s.e. mean of three experimental replicates of the above western blot (panel d) experiments.
Thus it appears that the ability of the GnRH-induced stimulation of either JEG-3 or BPH-1 cells is not correlated to their anti-proliferative action. […] Using specific antisera against the kinase active form of ERK5 (or BMK) we observed no specific activation of this form of MAPK however using antisera specifically recognising the active forms of either c-Jun N-terminal kinase (JNK) or p38 MAPK we noted that in JEG-3 cells there was a potent, yet delayed GnRH-induced activation of JNK and a similarly slow inset activation of p38 in the BPH-1 cells. The level of activation of the endogenous stress-activated protein kinases (SAPKs) was relatively small but greater than the GnRH-activated ERK levels in these cells. To further investigate the validity of the observed SAPK activation we transfected the tumour cell lines with myc-tagged JNK2 or p38α MAPK isoforms, stimulated the cells with GnRH and then immunoprecipitated with anti-myc sera and western blotted the immunoprecipitates for total JNK/p38 protein and active JNK/p38. In FIG. 7 (panel a) GnRH causes a demonstrable, time-dependent and protracted activation of the immunoprecipitated JNK2. Activation of JNK2 typically only occurred after 30 minutes of GnRH I stimulation. […] As with the activation of the JNK in the JEG-3 cells there was a considerable delay in the onset of the p38 activation unlike the ERK signalling events that typically occur and peak within 20 minutes of GnRH ligand application (FIG. 7, panel b).

For assay [1], the system named is human benign prostate hyperplastic (BPH-1) cells. In words: Anti-proliferative effect on BPH-1 cells, viable cell count after 5 days. In kind it is cell-based. Particulars: 5 days continuous treatment, trypan blue exclusion. Here is the method:
(§1) Low cell density BPH-1 cell subcultures were treated for 5 days continuously with the indicated doses of GnRH I (a), GnRH II (b), Ant 135-18 (c) or Ant 135-25 (d) added directly to RPMI 1640 medium supplemented with 10% FCS, glutamine and penicillin/streptomycin. Ligands were replenished every 24 h. At the end of the stimulation period cells were removed form the growth plates by trypsin and mixed with trypan blue dye (enters non-viable cells). Only viable cells were therefore counted using a haemocytometer in quadruplicate for each ligand dose. The bars in each histogram represent the mean±s.e. mean of n=4 experiments.
(§2) Each cell type was plated at an initial minimal confluency (10-20%) to allow for 5 days of normal continual cell growth that would not result in 100% cell confluency by day 5. Each ligand was incubated, in triplicate for every experimental concentration, with the cell monolayers for five days with replacement of the ligand every 12 h. At the end of the stimulation period the number of viable cells was estimated by their capacity to prevent uptake of Trypan Blue stain.
Employing an identical growth and stimulation methodology to that described in the previous paragraph and in FIG. 1 we exposed the hyperplastic cell line, BPH-1, to the same panel of GnRH ligands and antagonistic analogues (FIG. 2). Reminiscent of FIG. 1 both endogenous GnRH agonists exert a similar mode of action with respect to their dose-dependent inhibition of BPH-1 cell growth over the five day stimulation period.

Assay [2] relates to HEK293 cells stably expressing the Type I GnRHR (SCL60). In words: Anti-proliferative effect on SCL60 cells, viable cell count after 5 days. In kind it is cell-based, human. Particulars: 5 days continuous treatment, trypan blue exclusion. Here is the method:
An identical methodology of measuring cell growth was employed as in FIG. 1.
as §2
We further investigated the nature of the ligand-receptor specificity of the anti-proliferative effects of GnRH receptor systems by studying our ligand panel effects upon a model cell background, i.e. SCL60 HEK293 cells stably expressing the rat Type I GnRHR. […] We attribute this greater effect of the GnRHR ligands upon the SCL60 cells to the much greater level of receptor expression in the SCL60 cells.

In assay [3] the test system is human JEG-3 choriocarcinoma cells. As to the kind of experiment: Anti-proliferative effect on JEG-3 cells, viable cell count after 5 days. In kind it is cell-based. Particulars: 5 days continuous treatment, trypan blue exclusion. Here is the method:
as §1, with “JEG-3” for “BPH-1”, “antagonist” for “Ant”, “Dulbecco's modified Eagles” for “RPMI 1640”, “from” for “form”, “with” for “by”
as §2

“Also recorded” adds a separate entry of the source.

As for `C[S+]([O-])c1ccc(-c2nc(-c3ccncc3)c(-c3ccc(F)cc3)[nH]2)cc1` (centres unmarked) [SB203580], in the assay on ERK1/2 (20 μM SB203580, data not shown), the “effect on GnRH I activation of ERK1/2” value is on record as “not significantly affecting the activation of ERK1/2 MAPKs”. Further, the “effect on GnRH I stimulation of JNK” value in the assay with JNK2 (20 μM SB203580, data not shown) is “effectively abrogates the ability of GnRH I to stimulate JNK”.
Consider “Ac-D-Nal(2)-D-4-ClPhe-D-Pal-Ser-1-MePal-D-IsopropylLys-Leu-IsopropylLys-Pro-D-AlaNH2 [Ant 135-25]”, for which, in the assay on ERK1/2, the “extent of ERK1/2 phosphorylation (activation)” value (“extent” for short) was “activate ERK1/2 to a similar extent”. Moreover, the “anti-proliferative effect (viable cell number)” value (“anti-proliferative effect” for short) is “anti-proliferative effect upon BPH-1 cells with a similar potency to that of GnRH I” in assay [1], “greater anti-proliferative efficacy” in assay [2], “nearly an as efficacious action as either GnRH I or GnRH II” in assay [2] (listed as Ant135-25) and “clear dose-response relationships for the inhibition of cellular growth” in assay [3]. In the assay with JNK2, the “activation (phosphorylation) of myc-JNK2” value is given as “can efficiently activate the myc-JNK2 construct”. Moreover, the “effect of PTX pre-incubation on JNK phosphorylation” value with JNK2 is listed as “abolished with the PTX pre-incubation”.
Consider “Ac-D-Nal(2)-D-4-ClPhe-D-Pal-Ser-Ile-D-IsopropylLys-Leu-IsopropylLys-Pro-D -AlaNH2 [Ant 135-18]”, for which the “extent” value with ERK1/2 is “least effective”; with ERK1/2 (listed as Ant135-18) it was “considerably less”. Besides, the “anti-proliferative effect” value was “much lower potency and efficacy compared to Ant 135-25 and GnRH I” in assay [1]; “low ant-proliferative potency” in assay [1] (listed as Ant135-18); “low efficacy compared to the other ligands” in assay [2]; “relatively ineffective at inhibiting the SCL60 cell proliferation” in assay [2] (listed as Ant135-18); “much lower potency and efficacy compared to 135-25, GnRH I and II” in assay [3]; “failed to demonstrate an anti-proliferative effect of a similar magnitude to that generated by GnRH I, GnRH II or Ant135-25” in assay [3] (listed as Ant135-18). For the same molecule, the “activation (phosphorylation) of myc-JNK2” value with JNK2 is “fails to efficiently activate JNK”; in the assay on JNK2 (listed as Ant135-18) it was “dramatically lower efficacy than GnRH I or Ant 135-25”.
Consider “GnRH I: Gonadotropin-Releasing Hormone, a decapeptide; the original form of GnRH, re-named GnRH I”, for which the “extent” value with ERK1/2 is “activate ERK1/2 to a similar extent”. For the same molecule, in assay [1], the “anti-proliferative effect” value is “potent and dose-dependent anti-proliferative effect; also recorded: more potent that GnRH II in its capacity to arrest cell growth”. In the assay with JNK2, the “time to onset of JNK2 activation” value was over 30 min, the “activation (phosphorylation) of myc-JNK2” value was “significant activation of the immunoprecipitated myc-JNK2; also recorded: can efficiently activate the myc-JNK2 construct” and the “effect of PTX pre-incubation on JNK phosphorylation” value was “abolished with the PTX pre-incubation”. Further, in assay [2], the “anti-proliferative effect” value was “greater anti-proliferative efficacy; also recorded: dramatic reduction in the cells growth rate and significant loss of total cell number”. Also, the “anti-proliferative effect” value in assay [3] was “potent and dose-dependent anti-proliferative effect; also recorded: clear dose-response relationships for the inhibition of cellular growth”.

The values above are taken from patent US7361633B2, “Screening method and anti-tumor drug candidate obtained therefrom” (Ardana Bioscience Limited, priority 2002, dated 2008).
